# Assay: (§1) The drug is tested on Z-009 corresponding to pig gut metagenome with ENA study accession number: PRJEB37062 and ENA sample accession number: ERS12561809 for biotransformation under anaerobic condition. The drug concentrations were measured over 9 timepoints collected between 0 and 24 hours of incubation by liquid-chromatography-coupled mass spectrometry (LC–MS)
# Conditions: 2 µM
# Also: call rule not given here.
row,SMILES,Bacterial Biotransformation
1,CC(C)(C)NCC(O)c1cc(Cl)c(N)c(Cl)c1 (stereo not given) [CLENBUTEROL],Compound NOT metabolized
2,C[N+]12CCC(CC1)C(OC(=O)C(O)(c1ccccc1)c1ccccc1)C2.[Br-] (stereo not given) [CLIDINIUM BROMIDE],Compound metabolized
3,Clc1cccc(Cl)c1N=C1NCCN1 [CLONIDINE],Compound metabolized
4,COC(=O)[C@H](c1ccccc1Cl)N1CCc2sccc2C1.O=S(=O)(O)O [CLOPIDOGREL BISULFATE],Compound metabolized

# Assay: as §1, with “Z-006” for “Z-009”, “mouse” for “pig”, “ERS12561806” for “ERS12561809”
# Conditions: 2 µM
row,SMILES,Bacterial Biotransformation
1,CC(C)(C)NCC(O)c1cc(Cl)c(N)c(Cl)c1 (stereo not given) [CLENBUTEROL],Compound NOT metabolized
2,C[N+]12CCC(CC1)C(OC(=O)C(O)(c1ccccc1)c1ccccc1)C2.[Br-] (stereo not given) [CLIDINIUM BROMIDE],Compound NOT metabolized
3,Clc1cccc(Cl)c1N=C1NCCN1 [CLONIDINE],Compound NOT metabolized
4,COC(=O)[C@H](c1ccccc1Cl)N1CCc2sccc2C1.O=S(=O)(O)O [CLOPIDOGREL BISULFATE],Compound metabolized

# Conditions: human gut metagenome, 24 h, 2 µM
row,SMILES,Bacterial Biotransformation
1,CC(C)(C)NCC(O)c1cc(Cl)c(N)c(Cl)c1 (stereo not given) [CLENBUTEROL],Compound NOT metabolized
2,C[N+]12CCC(CC1)C(OC(=O)C(O)(c1ccccc1)c1ccccc1)C2.[Br-] (stereo not given) [CLIDINIUM BROMIDE],Compound NOT metabolized
3,Clc1cccc(Cl)c1N=C1NCCN1 [CLONIDINE],Compound NOT metabolized
4,COC(=O)[C@H](c1ccccc1Cl)N1CCc2sccc2C1.O=S(=O)(O)O [CLOPIDOGREL BISULFATE],Compound NOT metabolized

# Assay: as §1, with “Z-013” for “Z-009”, “rabbit” for “pig”, “ERS12561813” for “ERS12561809”
# Conditions: 2 µM
row,SMILES,Bacterial Biotransformation
1,CC(C)(C)NCC(O)c1cc(Cl)c(N)c(Cl)c1 (stereo not given) [CLENBUTEROL],Compound NOT metabolized
2,C[N+]12CCC(CC1)C(OC(=O)C(O)(c1ccccc1)c1ccccc1)C2.[Br-] (stereo not given) [CLIDINIUM BROMIDE],Compound NOT metabolized
3,Clc1cccc(Cl)c1N=C1NCCN1 [CLONIDINE],Compound NOT metabolized
4,COC(=O)[C@H](c1ccccc1Cl)N1CCc2sccc2C1.O=S(=O)(O)O [CLOPIDOGREL BISULFATE],Compound metabolized

# Conditions: human gut metagenome, 24 h, 2 µM
# Remark: another data set of the same source
row,SMILES,Bacterial Biotransformation
1,CC(C)(C)NCC(O)c1cc(Cl)c(N)c(Cl)c1 (stereo not given) [CLENBUTEROL],Compound NOT metabolized
2,C[N+]12CCC(CC1)C(OC(=O)C(O)(c1ccccc1)c1ccccc1)C2.[Br-] (stereo not given) [CLIDINIUM BROMIDE],Compound metabolized
3,Clc1cccc(Cl)c1N=C1NCCN1 [CLONIDINE],Compound NOT metabolized
4,COC(=O)[C@H](c1ccccc1Cl)N1CCc2sccc2C1.O=S(=O)(O)O [CLOPIDOGREL BISULFATE],Compound metabolized

# Conditions: human gut metagenome, 24 h, 2 µM
# Remark: another data set of the same source
row,SMILES,Bacterial Biotransformation
1,CC(C)(C)NCC(O)c1cc(Cl)c(N)c(Cl)c1 (stereo not given) [CLENBUTEROL],Compound NOT metabolized
2,C[N+]12CCC(CC1)C(OC(=O)C(O)(c1ccccc1)c1ccccc1)C2.[Br-] (stereo not given) [CLIDINIUM BROMIDE],Compound NOT metabolized
3,Clc1cccc(Cl)c1N=C1NCCN1 [CLONIDINE],Compound NOT metabolized
4,COC(=O)[C@H](c1ccccc1Cl)N1CCc2sccc2C1.O=S(=O)(O)O [CLOPIDOGREL BISULFATE],Compound metabolized

# Conditions: human gut metagenome, 24 h, 2 µM
# Remark: another data set of the same source
row,SMILES,Bacterial Biotransformation
1,CC(C)(C)NCC(O)c1cc(Cl)c(N)c(Cl)c1 (stereo not given) [CLENBUTEROL],Compound NOT metabolized
2,C[N+]12CCC(CC1)C(OC(=O)C(O)(c1ccccc1)c1ccccc1)C2.[Br-] (stereo not given) [CLIDINIUM BROMIDE],Compound NOT metabolized
3,Clc1cccc(Cl)c1N=C1NCCN1 [CLONIDINE],Compound metabolized
4,COC(=O)[C@H](c1ccccc1Cl)N1CCc2sccc2C1.O=S(=O)(O)O [CLOPIDOGREL BISULFATE],Compound metabolized

# Assay: as §1, with “WLS-052” for “Z-009”, “human” for “pig”, “ERS12561747” for “ERS12561809”
# Conditions: 2 µM
row,SMILES,Bacterial Biotransformation
1,CC(C)(C)NCC(O)c1cc(Cl)c(N)c(Cl)c1 (stereo not given) [CLENBUTEROL],Compound NOT metabolized
2,C[N+]12CCC(CC1)C(OC(=O)C(O)(c1ccccc1)c1ccccc1)C2.[Br-] (stereo not given) [CLIDINIUM BROMIDE],Compound metabolized
3,Clc1cccc(Cl)c1N=C1NCCN1 [CLONIDINE],Compound NOT metabolized
4,COC(=O)[C@H](c1ccccc1Cl)N1CCc2sccc2C1.O=S(=O)(O)O [CLOPIDOGREL BISULFATE],Compound metabolized

# Assay: as §1, with “Z-004” for “Z-009”, “to” for “to pig gut”, “ERS12561804” for “ERS12561809”
# Conditions: 2 µM
row,SMILES,Bacterial Biotransformation
1,CC(C)(C)NCC(O)c1cc(Cl)c(N)c(Cl)c1 (stereo not given) [CLENBUTEROL],Compound NOT metabolized
2,C[N+]12CCC(CC1)C(OC(=O)C(O)(c1ccccc1)c1ccccc1)C2.[Br-] (stereo not given) [CLIDINIUM BROMIDE],Compound NOT metabolized
3,Clc1cccc(Cl)c1N=C1NCCN1 [CLONIDINE],Compound metabolized
4,COC(=O)[C@H](c1ccccc1Cl)N1CCc2sccc2C1.O=S(=O)(O)O [CLOPIDOGREL BISULFATE],Compound metabolized

# Conditions: human gut metagenome, 24 h, 2 µM
# Remark: another data set of the same source
row,SMILES,Bacterial Biotransformation
1,CC(C)(C)NCC(O)c1cc(Cl)c(N)c(Cl)c1 (stereo not given) [CLENBUTEROL],Compound NOT metabolized
2,C[N+]12CCC(CC1)C(OC(=O)C(O)(c1ccccc1)c1ccccc1)C2.[Br-] (stereo not given) [CLIDINIUM BROMIDE],Compound NOT metabolized
3,Clc1cccc(Cl)c1N=C1NCCN1 [CLONIDINE],Compound NOT metabolized
4,COC(=O)[C@H](c1ccccc1Cl)N1CCc2sccc2C1.O=S(=O)(O)O [CLOPIDOGREL BISULFATE],Compound metabolized

# Conditions: human gut metagenome, 24 h, 2 µM
# Remark: another data set of the same source
row,SMILES,Bacterial Biotransformation
1,CC(C)(C)NCC(O)c1cc(Cl)c(N)c(Cl)c1 (stereo not given) [CLENBUTEROL],Compound NOT metabolized
2,C[N+]12CCC(CC1)C(OC(=O)C(O)(c1ccccc1)c1ccccc1)C2.[Br-] (stereo not given) [CLIDINIUM BROMIDE],Compound NOT metabolized
3,Clc1cccc(Cl)c1N=C1NCCN1 [CLONIDINE],Compound NOT metabolized
4,COC(=O)[C@H](c1ccccc1Cl)N1CCc2sccc2C1.O=S(=O)(O)O [CLOPIDOGREL BISULFATE],Compound metabolized

# Assay: as §1, with “Z-023” for “Z-009”, “to” for “to pig gut”, “ERS12561822” for “ERS12561809”
# Conditions: 2 µM
row,SMILES,Bacterial Biotransformation
1,CC(C)(C)NCC(O)c1cc(Cl)c(N)c(Cl)c1 (stereo not given) [CLENBUTEROL],Compound NOT metabolized
2,C[N+]12CCC(CC1)C(OC(=O)C(O)(c1ccccc1)c1ccccc1)C2.[Br-] (stereo not given) [CLIDINIUM BROMIDE],Compound metabolized
3,Clc1cccc(Cl)c1N=C1NCCN1 [CLONIDINE],Compound NOT metabolized
4,COC(=O)[C@H](c1ccccc1Cl)N1CCc2sccc2C1.O=S(=O)(O)O [CLOPIDOGREL BISULFATE],Compound metabolized

# Assay: as §1, with “WLS-010” for “Z-009”, “human” for “pig”, “ERS12561743” for “ERS12561809”
# Conditions: 2 µM
row,SMILES,Bacterial Biotransformation
1,CC(C)(C)NCC(O)c1cc(Cl)c(N)c(Cl)c1 (stereo not given) [CLENBUTEROL],Compound NOT metabolized
2,C[N+]12CCC(CC1)C(OC(=O)C(O)(c1ccccc1)c1ccccc1)C2.[Br-] (stereo not given) [CLIDINIUM BROMIDE],Compound NOT metabolized
3,Clc1cccc(Cl)c1N=C1NCCN1 [CLONIDINE],Compound metabolized
4,COC(=O)[C@H](c1ccccc1Cl)N1CCc2sccc2C1.O=S(=O)(O)O [CLOPIDOGREL BISULFATE],Compound metabolized

# Assay: as §1, with “Z-007” for “Z-009”, “rat” for “pig”, “ERS12561807” for “ERS12561809”
# Conditions: 2 µM
row,SMILES,Bacterial Biotransformation
1,CC(C)(C)NCC(O)c1cc(Cl)c(N)c(Cl)c1 (stereo not given) [CLENBUTEROL],Compound NOT metabolized
2,C[N+]12CCC(CC1)C(OC(=O)C(O)(c1ccccc1)c1ccccc1)C2.[Br-] (stereo not given) [CLIDINIUM BROMIDE],Compound NOT metabolized
3,Clc1cccc(Cl)c1N=C1NCCN1 [CLONIDINE],Compound NOT metabolized
4,COC(=O)[C@H](c1ccccc1Cl)N1CCc2sccc2C1.O=S(=O)(O)O [CLOPIDOGREL BISULFATE],Compound NOT metabolized

# Conditions: human gut metagenome, 24 h, 2 µM
# Remark: another data set of the same source
row,SMILES,Bacterial Biotransformation
1,CC(C)(C)NCC(O)c1cc(Cl)c(N)c(Cl)c1 (stereo not given) [CLENBUTEROL],Compound NOT metabolized
2,C[N+]12CCC(CC1)C(OC(=O)C(O)(c1ccccc1)c1ccccc1)C2.[Br-] (stereo not given) [CLIDINIUM BROMIDE],Compound metabolized
3,Clc1cccc(Cl)c1N=C1NCCN1 [CLONIDINE],Compound metabolized
4,COC(=O)[C@H](c1ccccc1Cl)N1CCc2sccc2C1.O=S(=O)(O)O [CLOPIDOGREL BISULFATE],Compound metabolized

# Assay: as §1, with “WLS-073” for “Z-009”, “human” for “pig”, “ERS12561749” for “ERS12561809”
# Conditions: 2 µM
row,SMILES,Bacterial Biotransformation
1,CC(C)(C)NCC(O)c1cc(Cl)c(N)c(Cl)c1 (stereo not given) [CLENBUTEROL],Compound NOT metabolized
2,C[N+]12CCC(CC1)C(OC(=O)C(O)(c1ccccc1)c1ccccc1)C2.[Br-] (stereo not given) [CLIDINIUM BROMIDE],Compound NOT metabolized
3,Clc1cccc(Cl)c1N=C1NCCN1 [CLONIDINE],Compound NOT metabolized
4,COC(=O)[C@H](c1ccccc1Cl)N1CCc2sccc2C1.O=S(=O)(O)O [CLOPIDOGREL BISULFATE],Compound metabolized

# Conditions: human gut metagenome, 24 h, 2 µM
# Remark: another data set of the same source
row,SMILES,Bacterial Biotransformation
1,CC(C)(C)NCC(O)c1cc(Cl)c(N)c(Cl)c1 (stereo not given) [CLENBUTEROL],Compound NOT metabolized
2,C[N+]12CCC(CC1)C(OC(=O)C(O)(c1ccccc1)c1ccccc1)C2.[Br-] (stereo not given) [CLIDINIUM BROMIDE],Compound metabolized
3,Clc1cccc(Cl)c1N=C1NCCN1 [CLONIDINE],Compound metabolized
4,COC(=O)[C@H](c1ccccc1Cl)N1CCc2sccc2C1.O=S(=O)(O)O [CLOPIDOGREL BISULFATE],Compound metabolized

# Assay: as §1, with “Z-025” for “Z-009”, “rabbit” for “pig”, “ERS12561824” for “ERS12561809”
# Conditions: 2 µM
row,SMILES,Bacterial Biotransformation
1,CC(C)(C)NCC(O)c1cc(Cl)c(N)c(Cl)c1 (stereo not given) [CLENBUTEROL],Compound NOT metabolized
2,C[N+]12CCC(CC1)C(OC(=O)C(O)(c1ccccc1)c1ccccc1)C2.[Br-] (stereo not given) [CLIDINIUM BROMIDE],Compound NOT metabolized
3,Clc1cccc(Cl)c1N=C1NCCN1 [CLONIDINE],Compound NOT metabolized
4,COC(=O)[C@H](c1ccccc1Cl)N1CCc2sccc2C1.O=S(=O)(O)O [CLOPIDOGREL BISULFATE],Compound metabolized

# Assay: as §1, with “WLS-350” for “Z-009”, “human” for “pig”, “ERS12561789” for “ERS12561809”
# Conditions: 2 µM
row,SMILES,Bacterial Biotransformation
1,CC(C)(C)NCC(O)c1cc(Cl)c(N)c(Cl)c1 (stereo not given) [CLENBUTEROL],Compound NOT metabolized
2,C[N+]12CCC(CC1)C(OC(=O)C(O)(c1ccccc1)c1ccccc1)C2.[Br-] (stereo not given) [CLIDINIUM BROMIDE],Compound metabolized
3,Clc1cccc(Cl)c1N=C1NCCN1 [CLONIDINE],Compound NOT metabolized
4,COC(=O)[C@H](c1ccccc1Cl)N1CCc2sccc2C1.O=S(=O)(O)O [CLOPIDOGREL BISULFATE],Compound metabolized

# Assay: as §1, with “Z-022” for “Z-009”, “mouse” for “pig”, “ERS12561821” for “ERS12561809”
# Conditions: 2 µM
row,SMILES,Bacterial Biotransformation
1,CC(C)(C)NCC(O)c1cc(Cl)c(N)c(Cl)c1 (stereo not given) [CLENBUTEROL],Compound NOT metabolized
2,C[N+]12CCC(CC1)C(OC(=O)C(O)(c1ccccc1)c1ccccc1)C2.[Br-] (stereo not given) [CLIDINIUM BROMIDE],Compound NOT metabolized
3,Clc1cccc(Cl)c1N=C1NCCN1 [CLONIDINE],Compound NOT metabolized
4,COC(=O)[C@H](c1ccccc1Cl)N1CCc2sccc2C1.O=S(=O)(O)O [CLOPIDOGREL BISULFATE],Compound metabolized
